Test results taken from patent US20030207820A1, “Antibacterial compounds with improved pharmacokinetic profiles” (priority 2002, published 2003).
Read-outs that look alike come from different tables or passages of the source.

Assay: Pharmacokinetic profiles by cassette dosing in dog (IV and PO)
Type: in vivo
Conditions: male beagle dogs, 1 mg/kg; for bioavailability: read-out: F (PO), percent bioavailability
Method: The pharmacokinetic profiles of EXAMPLE 20, EXAMPLE 22, EXAMPLE 29 and EXAMPLE 31 were evaluated using cassette dosing protocols in dog. The cassette dosing protocol in dogs combined three test compounds with the reference compound (EXAMPLE 104 of commonly-owned U.S. Pat. No. 5,866,549), each at a dose of 1 mg/kg. The compounds for each cassette were formulated as a solution in an aqueous vehicle containing 10% ethanol and one equivalent hydrochloric acid. Groups of three male beagle dogs received either an intravenous dose (IV) or an oral dose (PO). Sequential blood samples were taken from each animal for 24 hours after dosing. The plasma concentrations of the test compound and reference compounds were simultaneously determined using HPLC-MS/MS following liquid-liquid extraction of the samples. The results are shown in TABLE 2, in which […] is plasma clearance; T1/2 and Tmax are expressed in hours; Cmax is expressed in μg/mL; AUC is expressed in μg·h/mL; F is percent bioavaibility; and volumes of distibution Vc and Vβ are volume of the central compartment and terminal phase distribution, respectively.

CC[C@H]1OC(=O)[C@H](C)C(=O)[C@H](C)[C@@H](O[C@@H]2O[C@H](C)C[C@H](N(C)C)[C@H]2O)C(C)(OCC#Cc2ccc(-c3nnn(C)n3)s2)C[C@@H](C)C(=O)[C@H](C)[C@H]2NC(=O)O[C@@]21C (stereo in doubt) [7B, (3aS,4R,7R,9R,10R,11S,13R,15R,15aR)-10-(((2S,3R,4S,6R)-4-(dimethylamino)-3-hydroxy-6-methyltetrahydro-2H-pyran-2-yl)oxy)-4-ethyl-3a,7,9,11,13,15-hexamethyl-11-((3-(5-(2-methyl-2H-tetraazol-5-yl)thien-2-yl)prop-2-ynyl)oxy)octahydro-2H-oxacyclotetradecino[4,3-d][1,3]oxazole-2,6,8,14(1H,7H,9H)-tetrone]
AUC (dog, in vivo, intravenous dose, read-out: AUC (IV)): 11900 ng·h/mL
clearance (dog, in vivo, intravenous dose, read-out: CLp (IV), plasma clearance (converted)): 1.5 mL/min/kg
half-life (dog, in vivo, intravenous dose, read-out: T½ (IV) (converted)): 9 h
Cmax (dog, in vivo, oral dose): 720 ng/mL
Tmax (dog, in vivo, oral dose): 1.3 h
AUC (dog, in vivo, oral dose, read-out: AUC (PO)): 9660 ng·h/mL
bioavailability (dog, in vivo, oral dose): 80.3%
half-life (dog, in vivo, oral dose, read-out: T½ (PO) (converted)): 6.7 h
Vc (IV), volume of the central compartment (intravenous dose): 0.9
Vβ (IV), terminal phase distribution volume (intravenous dose): 1.2

CC[C@H]1OC(=O)[C@@](C)(F)C(=O)[C@H](C)[C@@H](O[C@@H]2O[C@H](C)C[C@H](N(C)C)[C@H]2O)[C@@](C)(OCC#Cc2ccc(-c3nnn(C)n3)s2)C[C@@H](C)C(=O)[C@H](C)[C@H]2NC(=O)O[C@@]21C [3B, (3aS,4R,7S,9R,10R,11S,13R,15R,15aR)-10-(((2S,3R,4S,6R)-4-(dimethylamino)-3-hydroxy-6-methyltetrahydro-2H-pyran-2-yl)oxy)-4-ethyl-7-fluoro-3a,7,9,11,13,15-hexamethyl-11-((3-(5-(2-methyl-2H-tetraazol-5-yl)thien-2-yl)prop-2-ynyl)oxy)octahydro-2H-oxacyclotetradecino [4,3-d][1,3]oxazole-2,6,8,14(1H,7H,9H)-tetrone]
bioavailability (dog, plasma, oral dose): 73.6%
AUC (IV) (intravenous dose): 7290 ng·h/mL
CLp (IV), plasma clearance (intravenous dose): 0.16
T½ (IV) (intravenous dose): 14.4 h
Vc (IV), volume of the central compartment (intravenous dose): 1.6
Vβ (IV), terminal phase distribution volume (intravenous dose): 3.1
AUC (PO) (oral dose): 5140 ng·h/mL
Cmax (PO) (oral dose): 250 ng/mL
Tmax (PO) (oral dose): 2 h
T½ (PO) (oral dose): 11.1 h

CC[C@H]1OC(=O)[C@H](C)C(=O)[C@H](C)[C@@H](O[C@@H]2O[C@H](C)C[C@H](N(C)C)[C@H]2O)[C@@](C)(OC/C=C/c2ccc(-c3nnn(C)n3)s2)C[C@@H](C)C(=O)[C@H](C)[C@H]2NC(=O)O[C@@]21C [4B, (3aS,4R,7R,9R,10R,11S,13R,15R,15aR)-10-(((2S,3R,4S,6R)-4-(dimethylamino)-3-hydroxy-6-methyltetrahydro-2H-pyran-2-yl)oxy)-4-ethyl-3a,7,9,11,13,15-hexamethyl-11-(((2E)-3-(5-(2-methyl-2H-tetraazol-5-yl)thien-2-yl)prop-2-enyl)oxy)octahydro-2H-oxacyclotetradecino[4,3-d][1,3]oxazole-2,6,8,14(1H,7H,9H)-tetrone]
bioavailability (dog, plasma, oral dose): 63%
AUC (IV) (intravenous dose): 11520 ng·h/mL
CLp (IV), plasma clearance (intravenous dose): 0.09
T½ (IV) (intravenous dose): 8.4 h
Vc (IV), volume of the central compartment (intravenous dose): 0.9
Vβ (IV), terminal phase distribution volume (intravenous dose): 1.1
AUC (PO) (oral dose): 6770 ng·h/mL
Cmax (PO) (oral dose): 490 ng/mL
Tmax (PO) (oral dose): 1.5 h
T½ (PO) (oral dose): 7.8 h

CC[C@H]1OC(=O)[C@@](C)(F)C(=O)[C@H](C)[C@@H](O[C@@H]2O[C@H](C)C[C@H](N(C)C)[C@H]2O)[C@@](C)(OC/C=C/c2ccc(-c3nnn(C)n3)s2)C[C@@H](C)C(=O)[C@H](C)[C@H]2NC(=O)O[C@@]21C [8B, (3aS,4R,7S,9R,10R,11S,13R,15R,15aR)-10-(((2S,3R,4S,6R)-4-(dimethylamino)-3-hydroxy-6-methyltetrahydro-2H-pyran-2-yl)oxy)-4-ethyl-7-fluoro-3a,7,9,11,13,15-hexamethyl-11-(((2E)-3-(5-(2-methyl-2H-tetraazol-5-yl)thien-2-yl)prop-2-enyl)oxy)octahydro-2H-oxacyclotetradecino[4,3-d][1,3]oxazole-2,6,8,14(1H,7H,9H)-tetrone]
bioavailability (dog, plasma, oral dose): 81.1%
AUC (IV) (intravenous dose): 16130 ng·h/mL
CLp (IV), plasma clearance (intravenous dose): 0.07
T½ (IV) (intravenous dose): 22.9 h
Vc (IV), volume of the central compartment (intravenous dose): 1.1
Vβ (IV), terminal phase distribution volume (intravenous dose): 2.3
AUC (PO) (oral dose): 12600 ng·h/mL
Cmax (PO) (oral dose): 480 ng/mL
Tmax (PO) (oral dose): 4.5 h
T½ (PO) (oral dose): 17.2 h
